According to BigSolDB 2.1:

c1ccc(OP2(Oc3ccccc3)=NP(Oc3ccccc3)(Oc3ccccc3)=NP(Oc3ccccc3)(Oc3ccccc3)=N2)cc1
Settings	solubility (mole fraction)
in 2-ethoxyethanol, 298.15 K	0.0065
in 2-ethoxyethanol, 300.95 K	0.0074
in 2-ethoxyethanol, 303.25 K	0.0081
in 2-ethoxyethanol, 310.15 K	0.0106
in 2-ethoxyethanol, 314.55 K	0.0126
in 2-ethoxyethanol, 318.75 K	0.0148
in 2-ethoxyethanol, 323.65 K	0.0182
in 2-ethoxyethanol, 328.05 K	0.0212
in 2-ethoxyethanol, 333.15 K	0.0259
in 2-ethoxyethanol, 343.25 K	0.0352
in 2-ethoxyethanol, 348.35 K	0.042
in 2-ethoxyethanol, 353.15 K	0.0478
in THF, 293.25 K	0.151
in THF, 298.15 K	0.175
in THF, 304.35 K	0.2
in THF, 308.25 K	0.223
in THF, 314.25 K	0.253
in THF, 318.45 K	0.285
in THF, 323.15 K	0.315
in THF, 328.25 K	0.346
in acetone, 293.15 K	0.0295
in acetone, 296.45 K	0.0349
in acetone, 300.25 K	0.0423
in acetone, 304.35 K	0.0496
in acetone, 308.25 K	0.0588
in acetone, 314.25 K	0.0782
in acetone, 318.35 K	0.093
in acetone, 323.15 K	0.117
in acetonitrile, 298.25 K	0.004
in acetonitrile, 303.55 K	0.006
in acetonitrile, 308.25 K	0.0082
in acetonitrile, 313.35 K	0.0122
in acetonitrile, 318.35 K	0.017
in acetonitrile, 323.45 K	0.0243
in acetonitrile, 328.15 K	0.0332
in acetonitrile, 333.25 K	0.0457
in dichloromethane, 293.35 K	0.099
in dichloromethane, 295.95 K	0.111
in dichloromethane, 300.35 K	0.139
in dichloromethane, 303.15 K	0.158
in dichloromethane, 306.05 K	0.179
in dichloromethane, 310.35 K	0.219
in diethyl ether, 293.15 K	0.0101
in diethyl ether, 296.25 K	0.0122
in diethyl ether, 299.05 K	0.014
in diethyl ether, 300.35 K	0.0154
in diethyl ether, 303.15 K	0.0178
in diethyl ether, 306.05 K	0.0211
in ethanol, 298.25 K	0.0096
in ethanol, 300.95 K	0.0099
in ethanol, 303.25 K	0.0102
in ethanol, 308.15 K	0.011
in ethanol, 313.45 K	0.0119
in ethanol, 318.75 K	0.0129
in ethanol, 323.05 K	0.0136
in ethanol, 328.35 K	0.0147
in ethyl acetate, 298.15 K	0.0592
in ethyl acetate, 300.95 K	0.0655
in ethyl acetate, 303.25 K	0.0699
in ethyl acetate, 308.25 K	0.0829
in ethyl acetate, 313.25 K	0.0983
in ethyl acetate, 319.05 K	0.119
in ethyl acetate, 323.15 K	0.136
in ethyl acetate, 328.25 K	0.159
in n-heptane, 298.15 K	0.0035
in n-heptane, 303.45 K	0.0039
in n-heptane, 308.35 K	0.0044
in n-heptane, 313.05 K	0.0049
in n-heptane, 318.25 K	0.0056
in n-heptane, 323.35 K	0.0062
in n-heptane, 328.25 K	0.0069
in n-heptane, 333.15 K	0.0075
in toluene, 298.05 K	0.0572
in toluene, 300.95 K	0.065
in toluene, 303.35 K	0.0717
in toluene, 310.25 K	0.0904
in toluene, 314.45 K	0.106
in toluene, 318.65 K	0.123
in toluene, 323.55 K	0.15
in toluene, 327.95 K	0.173
in toluene, 333.15 K	0.209
in toluene, 338.25 K	0.246

O=[PH](O)c1ccccc1
Settings	solubility (mole fraction)
in 2-ethoxyethanol, 288.15 K	0.124
in 2-ethoxyethanol, 293.85 K	0.136
in 2-ethoxyethanol, 298.25 K	0.148
in 2-ethoxyethanol, 303.45 K	0.165
in 2-ethoxyethanol, 313.15 K	0.205
in 2-ethoxyethanol, 318.25 K	0.227
in 2-ethoxyethanol, 323.65 K	0.239
in 2-ethoxyethanol, 328.25 K	0.259
in 2-ethoxyethanol, 333.45 K	0.283
in 2-ethoxyethanol, 338.35 K	0.308
in 2-ethoxyethanol, 343.25 K	0.344
in 2-ethoxyethanol, 348.25 K	0.372
in 2-ethoxyethanol, 353.25 K	0.397
in 2-ethoxyethanol, 358.55 K	0.434
in 2-ethoxyethanol, 363.15 K	0.459
in acetone, 293.35 K	0.0305
in acetone, 298.15 K	0.0448
in acetone, 303.55 K	0.0671
in acetone, 308.25 K	0.0879
in acetone, 313.45 K	0.124
in acetone, 318.25 K	0.186
in acetone, 323.35 K	0.256
in benzene, 299.15 K	0.054
in benzene, 303.65 K	0.0709
in benzene, 308.55 K	0.111
in benzene, 313.25 K	0.145
in benzene, 318.45 K	0.225
in benzene, 323.15 K	0.308
in benzene, 328.35 K	0.415
in benzene, 333.15 K	0.554
in chloroform, 293.15 K	0.134
in chloroform, 298.45 K	0.157
in chloroform, 303.25 K	0.186
in chloroform, 308.25 K	0.228
in chloroform, 313.15 K	0.269
in chloroform, 318.35 K	0.315
in chloroform, 323.25 K	0.357
in dichloromethane, 288.15 K	0.0292
in dichloromethane, 293.35 K	0.0386
in dichloromethane, 296.25 K	0.0458
in dichloromethane, 298.15 K	0.0528
in dichloromethane, 303.45 K	0.0709
in dichloromethane, 308.25 K	0.091
in ethanol, 283.25 K	0.0889
in ethanol, 288.65 K	0.112
in ethanol, 293.15 K	0.136
in ethanol, 298.35 K	0.168
in ethanol, 303.45 K	0.205
in ethanol, 308.25 K	0.245
in ethanol, 313.45 K	0.297
in ethanol, 318.55 K	0.356
in ethanol, 323.35 K	0.42
in ethyl acetate, 293.45 K	0.0144
in ethyl acetate, 298.15 K	0.0185
in ethyl acetate, 303.25 K	0.0275
in ethyl acetate, 313.45 K	0.0494
in ethyl acetate, 318.25 K	0.0661
in ethyl acetate, 328.35 K	0.107
in ethyl acetate, 333.25 K	0.136
in ethyl acetate, 338.55 K	0.174
in methanol, 293.55 K	0.173
in methanol, 298.15 K	0.215
in methanol, 303.75 K	0.28
in methanol, 308.35 K	0.344
in methanol, 313.45 K	0.429
in methanol, 318.25 K	0.526
in methanol, 323.65 K	0.655
in toluene, 293.15 K	0.0187
in toluene, 298.35 K	0.0282
in toluene, 303.45 K	0.0389
in toluene, 313.25 K	0.0652
in toluene, 318.15 K	0.0934
in toluene, 323.35 K	0.125
in toluene, 328.15 K	0.162
in toluene, 333.55 K	0.199
in toluene, 338.45 K	0.255
in toluene, 343.15 K	0.316
in toluene, 348.35 K	0.413
in water, 297.79 K	0.0095
in water, 300.25 K	0.0111
in water, 302.4 K	0.0129
in water, 305.22 K	0.0159
in water, 309.93 K	0.0218
in water, 312.84 K	0.0305
in water, 318.15 K	0.0433
in water, 323.35 K	0.0572
in water, 328.15 K	0.085
in water, 333.45 K	0.11
in water, 338.25 K	0.161
in water, 343.15 K	0.208

CP(=O)(O)c1ccccc1
Settings	solubility (mole fraction)
in 2-ethoxyethanol, 298.15 K	0.252
in 2-ethoxyethanol, 303.15 K	0.289
in 2-ethoxyethanol, 313.25 K	0.348
in 2-ethoxyethanol, 318.15 K	0.397
in 2-ethoxyethanol, 323.35 K	0.441
in 2-ethoxyethanol, 328.25 K	0.472
in 2-ethoxyethanol, 333.15 K	0.519
in 2-ethoxyethanol, 338.45 K	0.587
in 2-ethoxyethanol, 343.35 K	0.639
in 2-ethoxyethanol, 348.35 K	0.697
in 2-ethoxyethanol, 353.15 K	0.751
in acetone, 293.15 K	0.0473
in acetone, 298.15 K	0.0609
in acetone, 303.25 K	0.0816
in acetone, 308.15 K	0.0995
in acetone, 313.35 K	0.127
in acetone, 318.15 K	0.165
in acetone, 323.25 K	0.204
in benzene, 293.25 K	0.0386
in benzene, 298.15 K	0.0541
in benzene, 303.15 K	0.0809
in benzene, 308.35 K	0.113
in benzene, 313.25 K	0.163
in benzene, 318.15 K	0.218
in benzene, 323.25 K	0.301
in benzene, 328.15 K	0.419
in benzene, 333.35 K	0.563
in chloroform, 293.15 K	0.112
in chloroform, 298.25 K	0.132
in chloroform, 303.15 K	0.156
in chloroform, 308.35 K	0.188
in chloroform, 313.15 K	0.214
in chloroform, 318.45 K	0.255
in chloroform, 323.15 K	0.288
in chloroform, 328.15 K	0.34
in dichloromethane, 288.55 K	0.0465
in dichloromethane, 293.65 K	0.0697
in dichloromethane, 296.15 K	0.0904
in dichloromethane, 298.35 K	0.104
in dichloromethane, 303.25 K	0.164
in dichloromethane, 308.35 K	0.235
in ethanol, 293.25 K	0.205
in ethanol, 298.15 K	0.266
in ethanol, 303.35 K	0.333
in ethanol, 308.25 K	0.39
in ethanol, 313.55 K	0.486
in ethanol, 318.45 K	0.614
in ethanol, 323.15 K	0.734
in ethanol, 328.25 K	0.872
in ethyl acetate, 288.35 K	0.0484
in ethyl acetate, 293.15 K	0.0621
in ethyl acetate, 298.25 K	0.075
in ethyl acetate, 303.45 K	0.0941
in ethyl acetate, 313.35 K	0.152
in ethyl acetate, 318.15 K	0.182
in ethyl acetate, 328.15 K	0.265
in ethyl acetate, 333.35 K	0.304
in ethyl acetate, 338.15 K	0.359
in ethyl acetate, 343.25 K	0.428
in methanol, 298.35 K	0.317
in methanol, 303.15 K	0.343
in methanol, 308.15 K	0.372
in methanol, 313.25 K	0.406
in methanol, 318.35 K	0.439
in methanol, 323.15 K	0.471
in methanol, 328.25 K	0.499
in toluene, 293.25 K	0.12
in toluene, 298.35 K	0.147
in toluene, 303.25 K	0.168
in toluene, 308.35 K	0.204
in toluene, 313.15 K	0.229
in toluene, 323.25 K	0.327
in toluene, 328.35 K	0.377
in toluene, 333.25 K	0.418
in toluene, 338.15 K	0.479
in toluene, 343.45 K	0.564
in water, 298.15 K	0.0154
in water, 303.35 K	0.0204
in water, 310.45 K	0.027
in water, 314.25 K	0.032
in water, 320.45 K	0.0414
in water, 324.15 K	0.0477
in water, 329.25 K	0.0579
in water, 333.65 K	0.0679
in water, 338.75 K	0.0865
in water, 343.45 K	0.0968
in water, 348.25 K	0.12
